# Patent US4859779A, “Dopamine-β-hydroxylase inhibitors” (SmithKline Beckman Corporation, priority 1989, dated 1989)
# Structures can show the parent of a compound that is named as a salt.
# How the values were obtained:
# DBH = biological target: T1, DBH (Homo sapiens, UniProt P09172); settings: literature reports; cited from earlier work
# T1 sequence (P09172 1-617): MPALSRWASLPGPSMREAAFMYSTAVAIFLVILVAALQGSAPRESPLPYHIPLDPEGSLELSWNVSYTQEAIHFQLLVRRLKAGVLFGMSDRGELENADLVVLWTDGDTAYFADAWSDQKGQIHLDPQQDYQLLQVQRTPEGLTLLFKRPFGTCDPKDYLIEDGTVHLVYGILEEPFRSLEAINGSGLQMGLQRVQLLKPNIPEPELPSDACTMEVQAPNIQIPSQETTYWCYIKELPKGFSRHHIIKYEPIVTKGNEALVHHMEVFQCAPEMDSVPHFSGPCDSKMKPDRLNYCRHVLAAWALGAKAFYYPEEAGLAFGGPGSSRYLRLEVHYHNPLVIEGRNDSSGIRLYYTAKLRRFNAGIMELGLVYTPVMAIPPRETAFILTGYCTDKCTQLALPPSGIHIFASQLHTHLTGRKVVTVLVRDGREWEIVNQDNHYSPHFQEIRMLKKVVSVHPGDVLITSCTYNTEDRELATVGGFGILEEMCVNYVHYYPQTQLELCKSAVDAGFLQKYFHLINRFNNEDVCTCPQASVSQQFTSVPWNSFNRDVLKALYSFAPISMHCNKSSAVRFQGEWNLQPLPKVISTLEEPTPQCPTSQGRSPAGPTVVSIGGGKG
# [1] = Ehrreich et al., 1976; cited from earlier work
# [2] = tested on: spontaneously hypertensive rats; test: mean arterial blood pressure in spontaneously hypertensive rats (indwelling tail artery cannulae); assay type: in vivo, rat; settings: 50 mg/kg intraperitoneally
# Method: Further, spontaneously hypertensive rats were treated with a suspension or solution of N-(2-aminoethyl)-1-(3,5-difluorobenzyl)-2-mercaptoimidazole-5-carboxamide,formate at a dose of 50 mg/kg intraperitoneally, and mean arterial blood pressure was monitored for 260 minutes using indwelling cannulae in the tail arteries.
compound,measurement,setting,value
"O=C(O)c1ccc(CCC(Br)CBr)cn1 (stereo not drawn) [5-(3,4-dibromobutyl)picolinic acid]",DBH inhibition (in words),DBH,DBH inhibitors
O=C(O)c1ccc(CCCCCl)cn1 [5-(4-chlorobutyl) picolinic acid],DBH inhibition (in words),DBH,inhibit DBH
CN(C)C(=S)SCc1ccc(C(=O)O)nc1 [5-(dimethyldithiocarbamoylmethyl)picolinic acid],DBH inhibition (in words),DBH,DBH inhibitors
NOCc1ccccc1 [Benzyloxyamine],DBH inhibition (in words),DBH,apparently act as competitive inhibitors
"CCCCc1ccc(C(N)=O)nc1 [Bupicomide, 5-(n-butyl)picolinamine]",antihypertensive activity,[1],antihypertensive activity
same,DBH inhibition (in words),DBH,DBH inhibitor
"NCCNC(=O)c1cnc(S)n1Cc1cc(F)cc(F)c1 [N-(2-Aminoethyl)-1-(3,5-difluorobenzyl)-2-mercaptoimidazole-5-carboxamide,formate]",blood pressure reduction compared to vehicle-treated controls,"[2]; suspension or solution, mean arterial blood pressure, within 30 minutes following treatment",significant blood pressure reductions
same,time to significant blood pressure reduction,[2]; versus vehicle-treated controls,≤ 30 min
NNCc1ccccc1 [benzylhydrazine],DBH inhibition (in words),DBH,apparently act as competitive inhibitors
